Assay results published in ChEMBL document CHEMBL2401674, “Inhibition of Candida albicans isocitrate lyase activity by cadiolides and synoilides from the ascidian Synoicum sp” (Bioorg Med Chem Lett, 2013).
Active and inactive are the calls of the source. The calls are words filed in the database; no cut-off is given here.

How the values were obtained:
Isocitrate lyase = Isocitrate lyase (Candida albicans, UniProt Q9P8Q7); experiment: Inhibition of recombinant Candida albicans ATCC 10231 ICL using phenylhydrazine and isocitrate as substrate assessed as formation of glyoxylate phenylhydrazone after 30 mins by spectrophotometric analysis
Candida albicans [1] = experiment: Antifungal activity against Candida albicans SC5314 assessed as growth inhibition after 48 hrs in presence of 2% glucose; format: functional; conditions: SC5314, 48 h
Candida albicans [2] = experiment: Antifungal activity against Candida albicans SC5314 assessed as growth inhibition after 48 hrs in presence of 2% potassium acetate; format: functional; conditions: SC5314, 48 h
Candida albicans [3] = experiment: Antifungal activity against wild type Candida albicans SC5314 assessed as growth inhibition at 12.5 ug/ml after 3 days in presence of sodium acetate; format: functional, organism-based
Candida albicans [4] = experiment: Antifungal activity against wild type Candida albicans SC5314 assessed as growth inhibition at 12.5 ug/ml after 3 days in presence of glucose; format: functional, organism-based
Candida albicans [5] = experiment: Downregulation of mRNA expression in wild type Candida albicans SC5314 at 12.5 ug/ml after 4 hrs by RT-PCR analysis relative to control; format: functional
Candida albicans [6] = experiment: Antifungal activity against icl-deficient Candida albicans MRC11 expressing ICL assessed as growth inhibition at 12.5 ug/ml after 3 days in presence of glucose; format: functional, organism-based
Candida albicans [7] = experiment: Antifungal activity against icl-deficient Candida albicans MRC10 assessed as growth inhibition at 12.5 ug/ml after 3 days in presence of sodium acetate; format: functional, organism-based
Candida albicans [8] = experiment: Antifungal activity against icl-deficient Candida albicans MRC10 assessed as growth inhibition at 12.5 ug/ml after 3 days in presence of glucose; format: functional, organism-based
Candida albicans [9] = experiment: Antifungal activity against icl-deficient Candida albicans MRC11 expressing ICL assessed as growth inhibition at 12.5 ug/ml after 3 days in presence of sodium acetate; format: functional, organism-based
Candida albicans [10] = experiment: Downregulation of mRNA expression in icl-deficient Candida albicans MRC11 expressing ICL at 12.5 ug/ml after 4 hrs by RT-PCR analysis relative to control; format: functional

Sequence of Isocitrate lyase (Q9P8Q7 whole entry): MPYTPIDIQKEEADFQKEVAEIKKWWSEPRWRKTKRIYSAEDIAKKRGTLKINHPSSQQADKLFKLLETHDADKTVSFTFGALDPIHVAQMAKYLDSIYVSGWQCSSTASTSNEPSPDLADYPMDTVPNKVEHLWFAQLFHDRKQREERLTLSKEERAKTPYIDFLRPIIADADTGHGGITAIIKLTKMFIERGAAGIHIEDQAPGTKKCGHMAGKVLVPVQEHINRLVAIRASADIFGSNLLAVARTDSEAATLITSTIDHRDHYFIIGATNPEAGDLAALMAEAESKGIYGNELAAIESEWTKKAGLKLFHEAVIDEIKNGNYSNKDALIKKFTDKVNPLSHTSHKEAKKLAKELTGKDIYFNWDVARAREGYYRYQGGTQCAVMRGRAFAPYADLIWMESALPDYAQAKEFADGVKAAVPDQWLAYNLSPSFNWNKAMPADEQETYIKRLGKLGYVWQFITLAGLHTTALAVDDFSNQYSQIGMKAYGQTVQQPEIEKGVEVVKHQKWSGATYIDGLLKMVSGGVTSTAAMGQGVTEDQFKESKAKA

Structure (SMILES) | IC50 (Isocitrate lyase) [µM] | MIC (Candida albicans [1]) [µg/mL] | MIC (Candida albicans [2]) [µg/mL] | growth inhibition (GI) (Candida albicans [3]) | growth inhibition (GI) (Candida albicans [4]) | fold change (FC) (Candida albicans [5]) | growth inhibition (GI) (Candida albicans [6]) | growth inhibition (GI) (Candida albicans [7]) | growth inhibition (GI) (Candida albicans [8]) | growth inhibition (GI) (Candida albicans [9]) | fold change (FC) (Candida albicans [10])
COC(=O)C1=C(c2cc(Br)c(O)c(Br)c2)C(=O)OC1=C(c1cc(Br)c(O)c(Br)c1)c1cc(Br)c(O)c(Br)c1 [CADIOLIDE I] | 10.4 | > 200 | 50 |  |  |  |  |  |  |  | 
COc1ccc(/C=C2\OC(=O)C([C@@H](O)c3cc(Br)c(OC)c(Br)c3)=C2c2cc(Br)c(O)c(Br)c2)cc1 | 17.2 | > 200 | 50 |  |  |  |  |  |  |  | 
O=C(O)CC[N+](=O)[O-] | 13.9 | > 200 | 200 |  |  |  |  |  |  |  | 
COc1c(Br)cc([C@H](O)C2=C(c3ccc(O)c(Br)c3)/C(=C/c3ccc(O)c(Br)c3)OC2=O)cc1Br [CADIOLIDE G] | 48.8 | > 200 | 50 |  |  |  |  |  |  |  | 

More lines, main results first:

IC50 (Isocitrate lyase) [µM] | MIC (Candida albicans [1]) [µg/mL] | MIC (Candida albicans [2]) [µg/mL] | Structure (SMILES) | growth inhibition (GI) (Candida albicans [3]) | growth inhibition (GI) (Candida albicans [4]) | fold change (FC) (Candida albicans [5]) | growth inhibition (GI) (Candida albicans [6]) | growth inhibition (GI) (Candida albicans [7]) | growth inhibition (GI) (Candida albicans [8]) | growth inhibition (GI) (Candida albicans [9]) | fold change (FC) (Candida albicans [10])
75.2 | > 200 | 100 | COC(=O)/C(C(=O)c1cc(Br)c(O)c(Br)c1)=C(\C(=O)OC)c1cc(Br)c(O)c(Br)c1 |  |  |  |  |  |  |  | 
 | 1.56 | 1.56 | C[C@@H]1[C@H](O)[C@@H](C)/C=C/C=C/C=C/C=C/C=C/C=C/C=C/[C@H](O[C@@H]2O[C@H](C)[C@@H](O)[C@H](N)[C@@H]2O)C[C@@H]2O[C@](O)(C[C@@H](O)C[C@@H](O)[C@H](O)CC[C@@H](O)C[C@@H](O)CC(=O)O[C@H]1C)C[C@H](O)[C@H]2C(=O)O [AMPHOTERICIN B] |  |  |  |  |  |  |  | 
7.62 | > 200 | 12.5 | O=C1O/C(=C\c2cc(Br)c(O)c(Br)c2)C(c2ccc(O)c(Br)c2)=C1C(=O)c1cc(Br)c(O)c(Br)c1 [CADIOLIDE E] | Active | inactive | 5 | inactive | Active | inactive | Active | 5
122 | > 200 | 100 | COC(=O)/C(C(=O)c1cc(Br)c(O)c(Br)c1)=C(\C(=O)OC)c1ccc(O)c(Br)c1 |  |  |  |  |  |  |  | 
